Assay results reported in ChEMBL document CHEMBL5050850, “Compositions and methods of using the same for treatment of neurodegenerative and mitochondrial disease” (2020).

Experiments:
[1] = Induction of mitophagy in human HeLa MKYP cells treated with FCCP/oligomycin for 6 hrs and measured by FACS analysis; assay type: functional, cell-based
HeLa = test: Cytotoxicity against human HeLa MKYP cells assessed as percentage of DAPI-positive cells at 50 uM and measured by DAPI staining method; assay type: toxicity, cell-based

Row | EC50 [1] | Compound | Activity (HeLa)
1 | 1.81 µM | CN1CCC(Nc2ncnc3[nH]c(C(F)(F)F)cc23)c2ccccc21 (centres undefined) | 28.1%
2 | > 50 µM | c1ccc2c(c1)CC[C@H]2Nc1ncnc2[nH]cnc12 | 10.3%
3 | > 50 µM | CN(C)C1CCC(CNc2ncnc3[nH]c(C(F)(F)F)cc23)CC1 (centres undefined) | 5.2%
4 | > 50 µM | CCCCNc1ncnc2c1cc(C(F)(F)F)n2C(C)=O | 36.6%
5 | 2.26 µM | c1ccc(CCNc2ncnc3[nH]cnc23)cc1 | 19.7%
6 | 2.69 µM | CC(Nc1ncnc2[nH]cnc12)c1ccccc1 (centres undefined) | 18.2%
7 | > 50 µM | C[C@@H](Nc1ncnc2[nH]c(C3CC3)nc12)c1ccccc1 | 12.3%
8 | > 50 µM | c1ccc2c(c1)OCC[C@H]2Nc1ncnc2[nH]cnc12 | 16%
9 | > 50 µM | CCCCNc1ncnc2[nH]c(C(F)(F)F)c(C)c12 | 11.9%
10 | 18.8 µM | CCCCNc1ncnc2[nH]c(C3CC3)nc12 | 16.2%
11 | > 50 µM | O=S1(=O)Cc2ccccc2C(Nc2ncnc3[nH]c(C(F)(F)F)cc23)C1 (centres undefined) | 13.2%
12 | 0.02 µM | C[C@H](Nc1ncnc2[nH]c(C(F)(F)F)cc12)c1ccccc1 | 90.8%
13 | 16 µM | Clc1cccc(CNc2ncnc3nc[nH]c23)c1 | 12.5%
14 | 2 µM | COc1ccccc1CNc1ncnc2[nH]c(C(F)(F)F)cc12 | 24.7%

The next lines start with the molecule.

Row | Compound | EC50 [1] | Activity (HeLa)
15 | OC[C@@H](Nc1ncnc2[nH]cnc12)c1ccccc1 | > 50 µM | 8.9%
16 | C[C@H](Nc1ncnc2[nH]cnc12)c1ccccc1 | 2 µM | 11.7%
17 | Cc1nc2c(N[C@H](C)c3ccccc3)ncnc2[nH]1 | > 50 µM | 9.7%
18 | C[C@@H](Nc1ncnc2[nH]cnc12)c1ccccc1 | 47.4 µM | 10.1%
19 | CCC(Nc1ncnc2[nH]c(C(F)(F)F)cc12)c1cncnc1 (centres undefined) | 18.8 µM | 15.9%
20 | C[C@@H](Nc1ncnc2[nH]c(C(F)(F)F)cc12)c1ccccc1 | 3.1 µM | 63.7%
21 | c1ccc2c(c1)OCC2Nc1ncnc2[nH]cnc12 (centres undefined) | 6.1 µM | 21%
22 | Cc1nc2c(N[C@@H](C)c3ccccc3)ncnc2[nH]1 | 4.6 µM | 31.9%
23 | FC(F)(F)c1cc2c(N[C@@H]3COc4ccccc43)ncnc2[nH]1 | 14.9 µM | 29.2%
24 | COc1ncccc1CNc1ncnc2[nH]c(C(F)(F)F)cc12 |  | 7.6%
25 | COc1ccc(CNc2ncnc3[nH]c(C(F)(F)F)cc23)c(OC)c1 | 2.08 µM | 42.6%
26 | OC[C@@H](Nc1ncnc2[nH]c(C(F)(F)F)cc12)c1ccccc1 | 4.4 µM | 30.3%
27 | c1coc(CNc2ncnc3[nH]cnc23)c1 [KINETIN] |  | 4.9%
28 | FC(F)(F)c1cc2c(NC3CCCc4ccccc43)ncnc2[nH]1 (racemic) | > 50 µM | 27.1%
29 | FC(F)(F)c1cc2c(NCc3cncnc3)ncnc2[nH]1 | 11.7 µM | 1.7%
30 | FC(F)(F)c1cc2c(NC3CCCc4ncncc43)ncnc2[nH]1 (centres undefined) | > 50 µM | 12%
31 | C[C@H](Nc1ncnc2[nH]c(C3CC3)nc12)c1ccccc1 | 3.17 µM | 27.6%
32 | c1ncc(CNc2ncnc3[nH]c(C4CC4)nc23)cn1 | > 50 µM | 7.1%
33 | CC(CNc1ncnc2[nH]cnc12)c1ccccc1 (centres undefined) | 3.6 µM | 28.9%
34 | FC(F)(F)c1cc2c(NCc3cnccn3)ncnc2[nH]1 |  | 0.9%
35 | FC(F)(F)c1cc2c(NCc3ccncn3)ncnc2[nH]1 |  | 1.5%
36 | FC(F)(F)c1cc2c(NCc3cccc(Cl)c3)ncnc2[nH]1 |  | 20.3%
37 | Fc1cccc(CNc2ncnc3[nH]c(C(F)(F)F)cc23)c1Cl |  | 4.5%
38 | Fc1cc(Cl)cc(CNc2ncnc3[nH]c(C(F)(F)F)cc23)c1 |  | 4.8%
